Source: the NIST ThermoML archive (doi:10.1021/je100358e)
± gives the expanded uncertainty stated by the source.

How the values were obtained:
[1] = Crystal; visual observation
[2] = Molar enthalpy of transition or fusion; settings: Crystal; DSC

Oc1ccc2ccccc2c1 [2-hydroxynaphthalene]
Normal melting temperature [1]: 121.20 ± 1.5 °C
Molar enthalpy of transition or fusion [2]: 5.04 ± 0.717 kcal/mol
